This is an account of results in patent US11819569B2, “Treating inflammation with inhaled aspirin” (VECTURA INC., priority 2013, dated 2023).

A short description of data set [1]: Pharmacokinetic studies after oral administration of ASA (cited Dressman et al.). To be noted: extrapolated from linear pharmacokinetics, dose not stated.
For data set [2] the following is noted: cited from earlier work.
The conditions of data set [3]: cited from earlier work. This is another data set of the same source.
For data set [4] the following is noted: cited from earlier work. This is another data set of the same source.
The conditions of data set [5]: oral solution of 650 mg, four male subjects; cited from earlier work.
Where [6] appears, read: metabolite after oral administration of ASA.
[7] abbreviates: after oral administration of ASA.

Each structure is given as a SMILES string. Like-named read-outs stand apart in the source and are kept apart here.

`O=C(O)c1ccccc1O` [salicylate, salicylic acid]: the “expected peak circulating plasma level” value in data set [1] is approximately 10 µg/mL. In data set [2] (setting [6]), the elimination half-life was 2 to 3 h and the “period over which plasma levels increase following administration of ASA” value is on record as “about 45 minutes”.
For `CC(=O)Oc1ccccc1C(=O)O` [aspirin, acetylsalicylic acid], the vascular events prevented in data set [3] (Dutch TIA Study, any dose above 30 mg daily, oral) is 13%. Also, in data set [3] (oral aspirin, studies used dosages of 325 mg), the “increase of major gastrointestinal and extracranial bleeds” value is given as “over 50%”. In addition, in data set [4] (oral administration), the “loss or inactivation of the oral dosage due to the first pass effect in the gut and liver” value is reported as “approximately ⅔”. For the same compound, in data set [4] (taken orally, first pass effect), the “fraction of the oral dose that is bioavailable” value was “about one to two-thirds”. Further, in data set [2] (setting [7]), the elimination half-life is 0.25 to 0.333 h and the “time to peak plasma levels” value was “about 20 minutes”. For the same compound, in data set [2] (dosage range from 30-400 mg), the “pharmacokinetic behavior over dosage range” value is listed as “linear”. Further, in data set [5], the “share of the dose that reached the peripheral circulation intact (AUC oral vs intravenous)” value is on record as 68%.
